Measurements: patent US20230138310A1 (priority 2020, published 2023)
Several values for one entry are separate records, joined by “and”; a condition that tells them apart may be missing. Equal entries are not always repeated. Where two headings read alike, the source gives them in different places.

Assays:
2019-nCov [1] = conditions: positive control, stated as existing value; read-out: EC50 of existing positive compound CQ against 2019-nCoV virus replication; cited from earlier work
[2] = target: T1, 3CL protease of 2019 Novel Coronavirus (2019-nCoV 3CLpro) (Severe acute respiratory syndrome coronavirus 2, UniProt P0DTD1); assay: FRET inhibitory activity against 3CL protease of 2019 Novel Coronavirus; format: biochemical; conditions: for inhibition at 1 µM: read-out: Inhibition rate (1 μM), 3CL protease of 2019 Novel Coronavirus
T1 construct: the 3CL protease of 2019 Novel Coronavirus (2019-nCoV 3CL^pro)

[3] = Half-toxic concentration (CC50) with CCK8 kit; format: cell-based; conditions: African green monkey, Vero E6 cells, in duplicate
Procedure: In this example, the half-toxic concentrations (CC50) of some compounds of the present invention to Vero E6 cells were determined with CCK8 kit in duplicate.

2019-nCov [4] = assay: Inhibitory activity against the replication of 2019-nCov (cytopathic effect, MTS); format: cell-based; conditions: for anti-virus activity against 2019-nCoV (in words): viral level, compared with positive control CQ; for EC50: Severe acute respiratory syndrome coronavirus 2, gradient concentrations, CQ as positive control, read-out: EC50 against 2019-nCoV virus replication
[5] = FRET, tables 1A/1B, read-out: IC50 (nM) of SARS-CoV-2 3 CL protease
[6] = read-out: IC50 against 2019-nCoV 3CL protease

SMILES	IC50 [2, 5] [nM]	inhibition at 1 µM ([2]; compound at 1 μM) [%]	IC50 [2, 6]	inhibition at 1 µM [2] [%]	further results
CCN(CC)CCCC(C)Nc1ccnc2cc(Cl)ccc12 (stereo not shown) [CQ]					EC50 (2019-nCov [1]): 1130 nM
CC(C)[C@H](NC(=O)c1cc2ccccc2[nH]1)C(=O)N[C@@H](CC1CCCCC1)C(=O)N[C@H](C=O)C[C@@H]1CCNC1=O [Compound 5, N-{(S)-3-methyl-1-carbonyl-1-{{(S)-1-carbonyl-1-{{(S)-1-carbonyl-3-[(S)-2-carbonylpyrrolidin-3-yl]propan-2-yl}amino}-3-cyclohexylpropan-2-yl}amino}butan-2-yl}indole-2-carboxamide]	33.6 ± 3.45	95.7	< 100 nM		
Cc1cc(C(=O)N[C@H](C(=O)N[C@@H](CC2CCCCC2)C(=O)N[C@H](C=O)C[C@@H]2CCNC2=O)C(C)C)no1 [Compound 6, 5-Methyl-N-{(S)-3-methyl-1-carbonyl-1-{{(S)-1-carbonyl-1-{{(S)-1-carbonyl-3-[(S)-2-carbonylpyrrolidin-3-yl]propan-2-yl}amino}-3-cyclohexylpropan-2-yl}amino}butan-2-yl}isoxazole-3-carboxamide]	48.5 ± 3.17	95.8	< 100 nM		
CC(C)[C@H](NC(=O)c1cc2ccccc2[nH]1)C(=O)N[C@@H](Cc1ccccc1)C(=O)N[C@H](C=O)C[C@@H]1CCNC1=O [Compound 9, N-{(S)-3-methyl-1-carbonyl-1-{{(S)-1-carbonyl-1-{{(S)-1-carbonyl-3-[(S)-2-carbonylpyrrolidin-3-yl]propan-2-yl}amino}-3-phenylpropan-2-yl}amino}butan-2-yl}indole-2-carboxamide]	68.1 ± 12.5	95.8	< 100 nM		
CC(C)[C@H](NC(=O)c1cc2ccccc2o1)C(=O)N[C@@H](Cc1ccccc1)C(=O)N[C@H](C=O)C[C@@H]1CCNC1=O [Compound 10, N-{(S)-3-methyl-1-carbonyl-1-{{(S)-1-carbonyl-1-{{(S)-1-carbonyl-3-[(S)-2-carbonylpyrrolidin-3-yl]propan-2-yl}amino}-3-phenylpropan-2-yl}amino}butan-2-yl}benzofuran-2-carboxamide]	67.5 ± 13.9	88.2	< 100 nM		
CC(C)[C@H](NC(=O)c1ccc2ccccc2n1)C(=O)N[C@@H](Cc1ccccc1)C(=O)N[C@H](C=O)C[C@@H]1CCNC1=O [Compound 11, N-{(S)-3-methyl-1-carbonyl-1-{{(S)-1-carbonyl-1-{{(S)-1-carbonyl-3-[(S)-2-carbonylpyrrolidin-3-yl]propan-2-yl}amino}-3-phenylpropan-2-yl}amino}butan-2-yl}quinoline-2-carboxamide]	179 ± 29.4	89.7			
O=C[C@H](C[C@@H]1CCNC1=O)NC(=O)[C@H](Cc1ccc(F)c(F)c1)NC(=O)c1cc2ccccc2[nH]1 [Compound 12]	87 ± 8	103	< 100 nM		
CC(C)[C@H](NC(=O)c1ccc2ccccc2n1)C(=O)N[C@@H](CC1CCCCC1)C(=O)N[C@H](C=O)C[C@@H]1CCNC1=O [Compound 16, N-{(S)-3-methyl-1-carbonyl-1-{{(S)-1-carbonyl-1-{{(S)-1-carbonyl-3-[(S)-2-carbonylpyrrolidin-3-yl]propan-2-yl}amino}-3-cyclohexylpropan-2-yl}amino}butan-2-yl}quinoline-2-carboxamide]	74	89.1	< 100 nM and 73.5 nM		CC50 [3]: > 100 µM; anti-virus activity against 2019-nCoV (in words) (2019-nCov [4]): excellent anti-virus activity
CC(C)[C@H](NC(=O)c1cc2ccccc2o1)C(=O)N[C@@H](CC1CCCCC1)C(=O)N[C@H](C=O)C[C@@H]1CCNC1=O [Compound 17, N-{(S)-3-methyl-1-carbonyl-1-{{(S)-1-carbonyl-1-{{(S)-1-carbonyl-3-[(S)-2-carbonylpyrrolidin-3-yl]propan-2-yl}amino}-3-cyclohexylpropan-2-yl}amino}butan-2-yl}benzofuran-2-carboxamide]	61 ± 12.5	106	< 100 nM		
CC(C)[C@H](NC(=O)c1cc2cccc(Br)c2o1)C(=O)N[C@@H](CC1CCCCC1)C(=O)N[C@H](C=O)C[C@@H]1CCNC1=O [Compound 18, 7-Bromo-N-{(S)-3-methyl-1-carbonyl-1-{{(S)-1-carbonyl-1-{{(S)-1-carbonyl-3-[(S)-2-carbonylpyrrolidin-3-yl]propan-2-yl}amino}-3-cyclohexylpropan-2-yl}amino}butan-2-yl}benzofuran-2-carboxamide]	238 ± 18.7	97.8			
Cc1cc2ccccc2nc1C(=O)N[C@H](C(=O)N[C@@H](CC1CCCCC1)C(=O)N[C@H](C=O)C[C@@H]1CCNC1=O)C(C)C [Compound 19, 3-Methyl-N-{(S)-3-methyl-1-carbonyl-1-{{(S)-1-carbonyl-1-{{(S)-1-carbonyl-3-[(S)-2-carbonylpyrrolidin-3-yl]propan-2-yl}amino}-3-cyclohexylpropan-2-yl}amino}butan-2-yl}quinoline-2-carboxamide]	62.7 ± 8.97	98.3	< 100 nM		
CC(C)[C@H](NC(=O)c1cc2cc(Cl)ccc2o1)C(=O)N[C@@H](CC1CCCCC1)C(=O)N[C@H](C=O)C[C@@H]1CCNC1=O [Compound 20, 5-Chloro-N-{(S)-3-methyl-1-carbonyl-1-{{(S)-1-carbonyl-1-{{(S)-1-carbonyl-3-[(S)-2-carbonylpyrrolidin-3-yl]propan-2-yl}amino}-3-cyclohexylpropan-2-yl}amino}butan-2-yl}benzofuran-2-carboxamide]	150 ± 9.55	101			
CC(C)[C@H](NC(=O)c1cc2ccccc2s1)C(=O)N[C@@H](CC1CCCCC1)C(=O)N[C@H](C=O)C[C@@H]1CCNC1=O [Compound 24]	132 ± 14.7	93.3			
CC(C)[C@H](NC(=O)c1cc2ccccc2[nH]1)C(=O)N[C@@H](CC1CCC(F)C(F)C1)C(=O)N[C@H](C=O)C[C@@H]1CCNC1=O (stereo partly shown) [Compound 35]				94.3	
O=C[C@H](C[C@@H]1CCNC1=O)NC(=O)[C@H](Cc1ccccc1)NC(=O)c1cc2cc(F)ccc2[nH]1 [Compound 45]				85.2	
O=C[C@H](C[C@@H]1CCNC1=O)NC(=O)[C@H](Cc1ccccc1)NC(=O)c1cc2ccc(F)cc2[nH]1 [Compound 46]				89.3	
O=C[C@H](C[C@@H]1CCNC1=O)NC(=O)[C@H](CC1CCCCC1)NC(=O)c1cc2c(Cl)cc(Cl)cc2[nH]1 [Compound 47]				90.4	
O=C[C@H](C[C@@H]1CCNC1=O)NC(=O)[C@H](CC1CCCCC1)NC(=O)c1cc2ccccc2[nH]1 [Compound 48]					CC50 [3]: > 100 µM; EC50 (2019-nCov [4]): 290 nM; anti-virus activity against 2019-nCoV (in words) (2019-nCov [4]): better than that of the positive control CQ; anti-virus activity against 2019-nCoV (in words) (2019-nCov [4]; listed as 2234): excellent anti-virus activity
Cn1c(C(=O)N[C@@H](CC2CCCCC2)C(=O)N[C@H](C=O)C[C@@H]2CCNC2=O)cc2ccccc21 [Compound 49]				91.2	
COc1ccc2[nH]c(C(=O)N[C@@H](CC3CCCCC3)C(=O)N[C@H](C=O)C[C@@H]3CCNC3=O)cc2c1 [Compound 50]				89.1	
O=C[C@H](C[C@@H]1CCNC1=O)NC(=O)[C@H](CC1CCCCC1)NC(=O)c1cc2c(F)cccc2[nH]1 [Compound 51]				84.6	
O=C[C@H](C[C@@H]1CCNC1=O)NC(=O)[C@H](CC1CCCCC1)NC(=O)c1cc2ccccc2s1 [Compound 56]				81.3	
O=C[C@H](C[C@@H]1CCNC1=O)NC(=O)[C@H](CC1CCCCC1)NC(=O)c1nc2ccccc2[nH]1 [Compound 57]				92.3	
O=C[C@H](C[C@@H]1CCNC1=O)NC(=O)[C@H](CC1CCCCC1)NC(=O)c1cnc2ccccc2n1 [Compound 59]				86.7	
O=C[C@H](C[C@@H]1CCNC1=O)NC(=O)[C@H](Cc1cccc(F)c1)NC(=O)c1cc2ccccc2[nH]1 [Compound 81]			< 100 nM		CC50 [3]: > 100 µM; EC50 (2019-nCov [4]): 330 ± 90 nM; anti-virus activity against 2019-nCoV (in words) (2019-nCov [4]): better than that of the positive control CQ; anti-virus activity against 2019-nCoV (in words) (2019-nCov [4]; listed as 2259): excellent anti-virus activity
O=C[C@H](C[C@@H]1CCNC1=O)NC(=O)[C@H](Cc1ccc(F)cc1)NC(=O)c1cc2ccccc2[nH]1 [Compound 82]	103 ± 13	101			
O=C[C@H](C[C@@H]1CCNC1=O)NC(=O)[C@H](Cc1cccc(F)c1)NC(=O)c1cc2c(F)ccc(F)c2[nH]1 [Compound 83, 4,7-Difluoron-{(S)-1-carbonyl-1-{{(S)-1-carbonyl-3-[(S)-2-carbonylpyrrolidin-3-yl]propan-2-yl}amino}-3-3fluorophenylpropan-2-yl}-1H-indole-2-carboxamide]	113 ± 9	97.8			
